Literature values as cited in PMC7797289 (Drug Design, Development and Therapy, 2021).

Assays:
lung cancer = lung cancer animal model
uPA = conditions: read-out: Ki (inhibitory constant); uPA inhibitor
breast cancer metastasis = conditions: in vivo test

Row | Compound | anti-tumor efficacy (lung cancer) | Ki (uPA) [nM] | breast cancer metastasis (breast cancer metastasis)
1 | N=C(N)c1ccc(CNC(=O)[C@H](CO)NC(=O)[C@@H](CO)NS(=O)(=O)Cc2ccccc2)cc1 [CJ-463, benzylsulfonyl-D-Ser-Ser-4- amidinobenzylamide] | good anti-tumor efficacy | 20 | –
2 | CN(C)C(=O)[C@H](Cc1ccccc1)NC(=O)[C@H]1O[C@@H]1C(=O)NCCc1ccccn1 [CLIK-148] | – | – | reduced breast cancer metastasis
3 | CCCNC(=O)[C@H]1O[C@@H]1C(=O)N[C@H](C(=O)N1CCC[C@H]1C(=O)O)[C@@H](C)CC [CA-074] | – | – | reduced breast cancer metastasis
